# Values joined by “and” are separate entries in the source; they are usually repeats but may differ in a detail not shown here. Identical values can stand only once.
# Assays:
# [1] = system: PBMC (CD8+ T cells) of HIV-1 infected individuals; test: IFN-γ Elispot assay with PBMC and synthetic HIV-1 peptides; type: cell-based, human
# Experimental: Peptides were added directly to the wells at a final concentration of 1×10^−5 molar. Cells were added to the wells at 50,000 to 100,000 cells per well. The plates were incubated at 37° C., 5% CO2 overnight (14-16 h) and then processed as described. IFN-γ producing cells were counted by direct visualization and are expressed as spot forming cells (SFC) per 10^6 cells. The number of specific IFN-γ secreting T-cells was calculated by subtracting the negative control value from the established SFC count. […] Responses ≧40 SFC per 10^6 input cells above background were considered positive. The positive control consisted of incubation of 100,000 PBMC with phytohaemagglutinin (PHA). […] Fine mapping of epitopes by Elispot assay was performed, using peptide truncations (e.g., as described in Altfield et al., 2000, J. Virol. 74:8541). 100,000 PBMC per well were incubated with concentrations from 10^−4 M to 10^−11 M of peptide overnight on the Elispot plate. All assays were run in duplicate. The optimal peptide was defined as the peptide that induced 50% maximal specific IFN-γ production of T-cells at the lowest peptide concentration.
# CD8+ T cells = test: Flow cytometric detection of antigen-induced intracellular IFN-γ; type: cell-based, human; details: subject AC-06
# Experimental: CD8+ T cells were non-specifically expanded from PBMC over 10 days, using a bi-specific […]. Peptide-specific CD8+ T cell lines were subsequently isolated using a standard IFN-γ catching assay. After expansion 10-20×10^6 CD8+ T cells were incubated on 24-well-plates with 20 μM peptide and 1 ug/ml each of the mAbs anti-CD28 and anti-CD49d (Becton Dickinson) at 37° C., 5% CO2, for 6-8 hour. Cell were subsequently labeled with a bi-specific CD45/IFN-γ catching antibody and incubated for 45 min at 37° C., 5% CO2. After several washes, the IFN-γ producing cells were stained with a second IFN-γ-PE detection antibody and separated by anti-PE mAb labeled with magnetic beads (MACS, Miltenyi Biotech, Hamburg, Germany). The isolated cells were then expanded for 10 days using autologous irradiated feeders.
# Intracellular cytokine staining assays were performed using known methods, e.g.,described by Pitcher et al., 1999, Nature Medicine 5:518 or Goulder et al, 2000, J. Exp. Med. 192:1819). […] Cells were then washed and analyzed on a FACSort Flowcytometer (Becton Dickinson Immunocytometry systems, San Jose, Calif.) using peridinin chlorophyl protein (PerCP), allophycocyanin (APC) and fluorescein isothiocyanate (FITC) as fluorescent parameters. […]
# HIV = test: Level of CTL immune response elicited by peptide immunogen
substance,measurement,setting,value
RIRTWKSLVK (Human immunodeficiency virus type 1),recognition (individuals with the corresponding HLA class I alleles that responded to the epitope),[1],3/15
AVRHFPRIW,recognition (individuals with the corresponding HLA class I alleles that responded to the epitope),[1],4/6
HPRVSSEVHI (Human immunodeficiency virus type 1),recognition (individuals with the corresponding HLA class I alleles that responded to the epitope),[1],3/8
THPRVSSEVHIPLG (Human immunodeficiency virus type 1) [vif-10],"Magnitude of peptide-specific CD8+ T cell responses against Vif overlapping peptides, IFN-γ ELISPOT",[1]; individual 6003,0 SFC/10^6 PMBC
same,"Magnitude of peptide-specific CD8+ T cell responses against Vif overlapping peptides, IFN-γ ELISPOT",[1]; individual 6007,0 SFC/10^6 PMBC
same,"Magnitude of peptide-specific CD8+ T cell responses against Vif overlapping peptides, IFN-γ ELISPOT",[1]; individual 6009,40 SFC/10^6 PMBC
same,"Magnitude of peptide-specific CD8+ T cell responses against Vif overlapping peptides, IFN-γ ELISPOT",[1]; individual AC-01,0 SFC/10^6 PMBC
same,"Magnitude of peptide-specific CD8+ T cell responses against Vif overlapping peptides, IFN-γ ELISPOT",[1]; individual AC-04,0 SFC/10^6 PMBC
same,"Magnitude of peptide-specific CD8+ T cell responses against Vif overlapping peptides, IFN-γ ELISPOT",[1]; individual AC-06,11800 SFC/10^6 PMBC
same,magnitude of CTL response by Elispot,"[1]; individual AC-06, text",1180 SFC/10^6 PBMC
same,"Magnitude of peptide-specific CD8+ T cell responses against Vif overlapping peptides, IFN-γ ELISPOT",[1]; individual AC-07,0 SFC/10^6 PMBC
same,"Magnitude of peptide-specific CD8+ T cell responses against Vif overlapping peptides, IFN-γ ELISPOT",[1]; individual AC-13,0 SFC/10^6 PMBC
same,"Magnitude of peptide-specific CD8+ T cell responses against Vif overlapping peptides, IFN-γ ELISPOT",[1]; individual AC-27,0 SFC/10^6 PMBC
same,"Magnitude of peptide-specific CD8+ T cell responses against Vif overlapping peptides, IFN-γ ELISPOT",[1]; individual AC-31,0 SFC/10^6 PMBC
same,"Magnitude of peptide-specific CD8+ T cell responses against Vif overlapping peptides, IFN-γ ELISPOT",[1]; individual AC-36,0 SFC/10^6 PMBC
same,"Magnitude of peptide-specific CD8+ T cell responses against Vif overlapping peptides, IFN-γ ELISPOT",[1]; individual AC-42,0 SFC/10^6 PMBC
same,"Magnitude of peptide-specific CD8+ T cell responses against Vif overlapping peptides, IFN-γ ELISPOT",[1]; individual AC-43,0 SFC/10^6 PMBC
same,"Magnitude of peptide-specific CD8+ T cell responses against Vif overlapping peptides, IFN-γ ELISPOT",[1]; individual AC-46,0 SFC/10^6 PMBC
same,"Magnitude of peptide-specific CD8+ T cell responses against Vif overlapping peptides, IFN-γ ELISPOT",[1]; individual AC-59,840 SFC/10^6 PMBC
same,"Magnitude of peptide-specific CD8+ T cell responses against Vif overlapping peptides, IFN-γ ELISPOT",[1]; individual AC-TZA,0 SFC/10^6 PMBC
same,"Magnitude of peptide-specific CD8+ T cell responses against Vif overlapping peptides, IFN-γ ELISPOT",[1]; individual CMW,0 SFC/10^6 PMBC
same,"Magnitude of peptide-specific CD8+ T cell responses against Vif overlapping peptides, IFN-γ ELISPOT",[1]; individual JMV,0 SFC/10^6 PMBC
same,"Magnitude of peptide-specific CD8+ T cell responses against Vif overlapping peptides, IFN-γ ELISPOT",[1]; individual JRH,0 SFC/10^6 PMBC
same,"Magnitude of peptide-specific CD8+ T cell responses against Vif overlapping peptides, IFN-γ ELISPOT",[1]; individual TMH#4,0 SFC/10^6 PMBC
REPHNEWTL (Human immunodeficiency virus type 1),recognition (individuals with the corresponding HLA class I alleles that responded to the epitope),[1],1/1
FPRIWLHGL (Human immunodeficiency virus type 1),recognition (individuals with the corresponding HLA class I alleles that responded to the epitope),[1],2/2 and 4/8
same,individuals expressing the HLA allele that targeted the epitope,"[1]; AL9: HLA-A2, FL9: HLA-B7",4/8
GPGHKARVL (Human immunodeficiency virus type 1),contribution to total HIV-1-specific CD8 responses,CD8+ T cells,32%
same,"percentage of CD8+ T cells specific for the epitope, intracellular IFN-γ",CD8+ T cells,5.6%
vif-3: overlapping peptide (12-18mer) spanning the HIV-1 SF2 B clade Vif sequence (RIRTWKSLVK; Human immunodeficiency virus type 1),"Magnitude of peptide-specific CD8+ T cell responses against Vif overlapping peptides, IFN-γ ELISPOT",[1]; individual 6003,0 SFC/10^6 PMBC
same,"Magnitude of peptide-specific CD8+ T cell responses against Vif overlapping peptides, IFN-γ ELISPOT",[1]; individual 6007,0 SFC/10^6 PMBC
same,"Magnitude of peptide-specific CD8+ T cell responses against Vif overlapping peptides, IFN-γ ELISPOT",[1]; individual 6009,290 SFC/10^6 PMBC
same,"Magnitude of peptide-specific CD8+ T cell responses against Vif overlapping peptides, IFN-γ ELISPOT",[1]; individual AC-01,0 SFC/10^6 PMBC
same,"Magnitude of peptide-specific CD8+ T cell responses against Vif overlapping peptides, IFN-γ ELISPOT",[1]; individual AC-04,0 SFC/10^6 PMBC
same,"Magnitude of peptide-specific CD8+ T cell responses against Vif overlapping peptides, IFN-γ ELISPOT",[1]; individual AC-06,680 SFC/10^6 PMBC
same,"Magnitude of peptide-specific CD8+ T cell responses against Vif overlapping peptides, IFN-γ ELISPOT",[1]; individual AC-07,0 SFC/10^6 PMBC
same,"Magnitude of peptide-specific CD8+ T cell responses against Vif overlapping peptides, IFN-γ ELISPOT",[1]; individual AC-13,0 SFC/10^6 PMBC
same,"Magnitude of peptide-specific CD8+ T cell responses against Vif overlapping peptides, IFN-γ ELISPOT",[1]; individual AC-27,0 SFC/10^6 PMBC
same,"Magnitude of peptide-specific CD8+ T cell responses against Vif overlapping peptides, IFN-γ ELISPOT",[1]; individual AC-31,0 SFC/10^6 PMBC
same,"Magnitude of peptide-specific CD8+ T cell responses against Vif overlapping peptides, IFN-γ ELISPOT",[1]; individual AC-36,0 SFC/10^6 PMBC
same,"Magnitude of peptide-specific CD8+ T cell responses against Vif overlapping peptides, IFN-γ ELISPOT",[1]; individual AC-42,0 SFC/10^6 PMBC
same,"Magnitude of peptide-specific CD8+ T cell responses against Vif overlapping peptides, IFN-γ ELISPOT",[1]; individual AC-43,0 SFC/10^6 PMBC
same,"Magnitude of peptide-specific CD8+ T cell responses against Vif overlapping peptides, IFN-γ ELISPOT",[1]; individual AC-46,0 SFC/10^6 PMBC
same,"Magnitude of peptide-specific CD8+ T cell responses against Vif overlapping peptides, IFN-γ ELISPOT",[1]; individual AC-59,0 SFC/10^6 PMBC
same,"Magnitude of peptide-specific CD8+ T cell responses against Vif overlapping peptides, IFN-γ ELISPOT",[1]; individual AC-TZA,0 SFC/10^6 PMBC
same,"Magnitude of peptide-specific CD8+ T cell responses against Vif overlapping peptides, IFN-γ ELISPOT",[1]; individual CMW,0 SFC/10^6 PMBC
same,"Magnitude of peptide-specific CD8+ T cell responses against Vif overlapping peptides, IFN-γ ELISPOT",[1]; individual JMV,0 SFC/10^6 PMBC
same,"Magnitude of peptide-specific CD8+ T cell responses against Vif overlapping peptides, IFN-γ ELISPOT",[1]; individual JRH,430 SFC/10^6 PMBC
same,"Magnitude of peptide-specific CD8+ T cell responses against Vif overlapping peptides, IFN-γ ELISPOT",[1]; individual TMH#4,0 SFC/10^6 PMBC
ISKKAKGWF (Human immunodeficiency virus type 1),recognition (individuals with the corresponding HLA class I alleles that responded to the epitope),[1],2/6
ALIRILQQL (Human immunodeficiency virus type 1),recognition (individuals with the corresponding HLA class I alleles that responded to the epitope),[1],8/24
same,"level of the immune response elicited, compared with SEQ ID NO:1",HIV,at least 1 log
LADQLIHLHY (Human immunodeficiency virus type 1),recognition (individuals with the corresponding HLA class I alleles that responded to the epitope),[1],2/5
